PMC10653547, “Synergistic effect of two antimicrobial peptides, BP203 and MAP-0403 J-2 with conventional antibiotics against colistin-resistant Escherichia coli and Klebsiella pneumoniae clinical isolates” (PLOS ONE, 2023)
≈ marks a conversion by molar mass, not a printed value. Positions of bridges follow the written chain, without caps; N, C: chain ends. Non-standard residues stand in square brackets, D forms with d. Residues, ends and D or L forms follow the SMILES beside them. *: point of attachment. X1 = CC[C@H](C)CCCCC(=O)*; Dab = NCC[C@H](N)C(=O)O

Tests used:
[1] = system: MRC-5 (CCL-171) normal lung fibroblast cells; assay: Cytotoxicity assay using MTT; type: cell-based, human; details: 24 h exposure
Experimental: MRC-5 (CCL-171) cell line, a representative of normal lung fibroblast cells, was used to investigate the cytotoxic effects of two AMPs, BP203 and MAP-0403 J-2. The cells were grown in Dulbecco’s Modified Eagle Medium (DMEM, Cytiva Life Sciences, Marlborough, MA, USA), supplemented with 10% fetal bovine serum (FBS), 1% penicillin (10,000 U/mL) and streptomycin (10,000 μg/mL) (Gibco, Waltham, MA, USA). 2×10^4 cells were seeded into each well of a 96-well plate and allowed to adhere for 24 h. Then, these cells were subjected to exposure to a medium containing a prepared two-fold serial dilution of BP203 or MAP-0403 J-2. […] 3-(4,5-Dimethylthiazol-2-yl)-2,5-Diphenyltetrazolium Bromide (MTT) was introduced into each well to achieve a concentration of 0.5 mg/mL followed by 4 h. incubation. Subsequently, formazan crystals were dissolved through the addition of 100 μL of a solubilizing solution composed of 10% SDS in 0.1 N HCl and the developed color was measured using a microtiter plate reader at an optical density (OD) of 570 nm. Cell viability was calculated as follows: (ODsample/ODcontrol) × 100.

[2] = system: colistin-resistant K. pneumoniae clinical isolates; assay: Colistin susceptibility by broth microdilution (CLSI); type: cell-based, Klebsiella pneumoniae; details: for COL MIC: broth microdilution
Experimental: (§1) Ten non-duplicate clinical isolates of colistin-resistant E. coli (EC) and ten non-duplicate clinical isolates of colistin-resistant K. pneumoniae (KP) were obtained from the bacterial repository of the Division of Infectious Diseases and Tropical Medicine, Department of Medicine, Faculty of Medicine Siriraj Hospital, Mahidol University. The species identification was conducted through standard biochemical tests. Antimicrobial susceptibility testing was carried out using the disk diffusion method following CLSI guidelines. Additionally, the assessment of colistin resistance in all isolates was performed by broth microdilution following CLSI recommendations. […] The amino acid sequences of BP203 and MAP-0403 J-2 were retrieved from previous studies. These peptides are BP100 and MAP-0403 analogs, respectively. […] Antibiotic disks and defibrinated sheep blood were obtained from Oxoid (Basingstoke, UK). All culture media were purchased from Becton Dickinson (Frankin Lakes, NJ, USA). All chemicals were obtained from Sigma-Aldrich (St. Louis, MO, USA).

[3] = system: colistin-resistant E. coli clinical isolates; assay: Checkerboard assay for synergy testing; type: cell-based, Escherichia coli
Experimental: (§2) The synergistic activities of various two-antimicrobial combinations against colistin-resistant E. coli and K. pneumoniae isolates were evaluated using the checkerboard assay, which was performed in 96-well plates. […] Two-fold serial dilutions of peptides and antibiotics were independently prepared in CAMHB. Afterward, a mixture of different concentrations of the antibiotics and peptides was added to the wells of the microplates. Antibiotics and peptides were also dispended alone in the first row and the first column, respectively. Bacterial inoculum was added to the 96-well plate to achieve a final concentration of 5 × 10^5 CFU/mL. Then, plates were incubated at 37 °C for 20–24 h. MICs were recorded as the minimum concentration of antimicrobial agents without bacterial growth. The interaction between the antimicrobials was determined by calculating the fractional inhibitory concentration index (FICI) according to the formula: FICI = FIC(drug A) + FIC(drug B), where FIC = the MIC of the drug when in the combination/MIC of drug tested individually.

[4] = system: colistin-resistant E. coli clinical isolates; assay: Colistin susceptibility by broth microdilution (CLSI); type: cell-based, Escherichia coli; details: for COL MIC: broth microdilution
Experimental: as §1

[5] = system: colistin-resistant K. pneumoniae clinical isolates; assay: Checkerboard assay for synergy testing; type: cell-based, Klebsiella pneumoniae
Experimental: as §2

[6] = checkerboard BP203 x colistin, EC-01
[7] = checkerboard BP203 x colistin, EC-02
[8] = checkerboard BP203 x colistin, EC-03
[9] = checkerboard BP203 x colistin, EC-04
[10] = checkerboard BP203 x colistin, EC-05
[11] = checkerboard BP203 x colistin, EC-06
[12] = checkerboard BP203 x colistin, EC-07
[13] = checkerboard BP203 x colistin, EC-08
[14] = checkerboard BP203 x colistin, EC-09
[15] = checkerboard BP203 x colistin, EC-10
[16] = checkerboard MAP-0403 J-2 x colistin, EC-01
[17] = checkerboard MAP-0403 J-2 x colistin, EC-02
[18] = checkerboard MAP-0403 J-2 x colistin, EC-03
[19] = checkerboard MAP-0403 J-2 x colistin, EC-04
[20] = checkerboard MAP-0403 J-2 x colistin, EC-05
[21] = checkerboard MAP-0403 J-2 x colistin, EC-06
[22] = checkerboard MAP-0403 J-2 x colistin, EC-07
[23] = checkerboard MAP-0403 J-2 x colistin, EC-08
[24] = checkerboard MAP-0403 J-2 x colistin, EC-09
[25] = checkerboard MAP-0403 J-2 x colistin, EC-10
[26] = checkerboard BP203 x colistin, KP-01
[27] = checkerboard BP203 x colistin, KP-02
[28] = checkerboard BP203 x colistin, KP-03
[29] = checkerboard BP203 x colistin, KP-04
[30] = checkerboard BP203 x colistin, KP-05
[31] = checkerboard BP203 x colistin, KP-06
[32] = checkerboard BP203 x colistin, KP-07
[33] = checkerboard BP203 x colistin, KP-08
[34] = checkerboard BP203 x colistin, KP-09
[35] = checkerboard BP203 x colistin, KP-10
[36] = checkerboard MAP-0403 J-2 x colistin, KP-01
[37] = checkerboard MAP-0403 J-2 x colistin, KP-02
[38] = checkerboard MAP-0403 J-2 x colistin, KP-03
[39] = checkerboard MAP-0403 J-2 x colistin, KP-04
[40] = checkerboard MAP-0403 J-2 x colistin, KP-05
[41] = checkerboard MAP-0403 J-2 x colistin, KP-06
[42] = checkerboard MAP-0403 J-2 x colistin, KP-07
[43] = checkerboard MAP-0403 J-2 x colistin, KP-08
[44] = checkerboard MAP-0403 J-2 x colistin, KP-09
[45] = checkerboard MAP-0403 J-2 x colistin, KP-10

Question: How did the IC50 [1] turn out when `CC[C@H](C)[C@H](NC(=O)CN)C(=O)NCC(=O)N[C@@H](C)C(=O)N[C@H](C(=O)N[C@@H](CC(C)C)C(=O)N[C@@H](CCCCN)C(=O)N[C@H](C(=O)N[C@@H](CC(C)C)C(=O)N[C@H](C(=O)N[C@H](C(=O)NCC(=O)N[C@@H](CC(C)C)C(=O)N1CCC[C@H]1C(=O)N[C@@H](C)C(=O)N[C@@H](CC(C)C)C(=O)N[C@H](C(=O)N[C@@H](CO)C(=O)N[C@@H](Cc1c[nH]c2ccccc12)C(=O)N[C@H](C(=O)N[C@@H](CCCCN)C(=O)N[C@@H](CCCNC(=N)N)C(=O)N[C@@H](CCCCN)C(=O)N[C@@H](CCCNC(=N)N)C(=O)N[C@@H](CCC(N)=O)C(=O)N[C@@H](CCC(N)=O)C(N)=O)[C@@H](C)CC)[C@@H](C)CC)[C@@H](C)O)[C@@H](C)O)C(C)C)C(C)C` [melittin] was run?
Answer: Its IC50 is 16.13 µg/mL (≈ 5.67 µM).

Question: What does the source list for `CC[C@H](C)CCCCC(=O)N[C@@H](CCN)C(=O)N[C@H](C(=O)N[C@@H](CCN)C(=O)N[C@H]1CCNC(=O)[C@H]([C@@H](C)O)NC(=O)[C@H](CCN)NC(=O)[C@H](CCN)NC(=O)[C@H](CC(C)C)NC(=O)[C@@H](CC(C)C)NC(=O)[C@H](CCN)NC1=O)[C@@H](C)O` [COL, colistin] (X1-[Dab]T[Dab][Dab][Dab][dL]L[Dab][Dab]T; lactam 4-C)?
Answer: %Resistance [2]: 100%; COL MIC ([2]; KP-01): 4 µg/mL; COL MIC ([2]; KP-02): 8 µg/mL; COL MIC ([2]; KP-03): 32 µg/mL; COL MIC ([2]; KP-04): 16 µg/mL; COL MIC ([2]; KP-05): 16 µg/mL; COL MIC ([2]; KP-06): 16 µg/mL; COL MIC ([2]; KP-07): 64 µg/mL; COL MIC ([2]; KP-08): 128 µg/mL; COL MIC ([2]; KP-09): 32 µg/mL; COL MIC ([2]; KP-10): 128 µg/mL; MICs, all isolates ([2]; all K. pneumoniae isolates): ≥ 4 µg/mL; MIC alone [3, 6]: 4 µg/mL; MIC combination [3, 6]: 2 µg/mL; MIC alone [3, 7]: 4 µg/mL; MIC combination [3, 7]: 2 µg/mL; MIC alone [3, 8]: 4 µg/mL; MIC combination [3, 8]: 1 µg/mL; MIC alone [3, 9]: 4 µg/mL; MIC combination [3, 9]: 2 µg/mL; MIC alone [3, 10]: 4 µg/mL; MIC combination [3, 10]: 2 µg/mL; MIC alone [3, 11]: 4 µg/mL; MIC combination [3, 11]: 4 µg/mL; MIC alone [3, 12]: 8 µg/mL; MIC combination [3, 12]: 4 µg/mL; MIC alone [3, 13]: 8 µg/mL; MIC combination [3, 13]: 8 µg/mL; MIC alone [3, 14]: 16 µg/mL; MIC combination [3, 14]: 8 µg/mL; MIC alone [3, 15]: 16 µg/mL; MIC combination [3, 15]: 2 µg/mL; MIC alone [3, 16]: 4 µg/mL; MIC combination [3, 16]: 0.5 µg/mL; MIC alone [3, 17]: 4 µg/mL; MIC combination [3, 17]: 1 µg/mL; MIC alone [3, 18]: 4 µg/mL; MIC combination [3, 18]: 0.5 µg/mL; MIC alone [3, 19]: 4 µg/mL; MIC combination [3, 19]: 2 µg/mL; MIC alone [3, 20]: 4 µg/mL; MIC combination [3, 20]: 1 µg/mL; MIC alone [3, 21]: 4 µg/mL; MIC combination [3, 21]: 2 µg/mL; MIC alone [3, 22]: 8 µg/mL; MIC combination [3, 22]: 2 µg/mL; MIC alone [3, 23]: 8 µg/mL; MIC combination [3, 23]: 2 µg/mL; MIC alone [3, 24]: 16 µg/mL; MIC combination [3, 24]: 4 µg/mL; MIC alone [3, 25]: 16 µg/mL; MIC combination [3, 25]: 4 µg/mL; %Resistance [4]: 100%; COL MIC ([4]; EC-01): 4 µg/mL; COL MIC ([4]; EC-02): 4 µg/mL; COL MIC ([4]; EC-03): 4 µg/mL; COL MIC ([4]; EC-04): 4 µg/mL; COL MIC ([4]; EC-05): 4 µg/mL; COL MIC ([4]; EC-06): 4 µg/mL; COL MIC ([4]; EC-07): 8 µg/mL; COL MIC ([4]; EC-08): 8 µg/mL; COL MIC ([4]; EC-09): 16 µg/mL; COL MIC ([4]; EC-10): 16 µg/mL; MICs, all isolates ([4]; all E. coli isolates): ≥ 4 µg/mL; MIC alone [5, 26]: 4 µg/mL; MIC combination [5, 26]: 4 µg/mL; MIC alone [5, 27]: 8 µg/mL; MIC combination [5, 27]: 8 µg/mL; MIC alone [5, 28]: 32 µg/mL; MIC combination [5, 28]: 32 µg/mL; MIC alone [5, 29]: 16 µg/mL; MIC combination [5, 29]: 16 µg/mL; MIC alone [5, 30]: 16 µg/mL; MIC combination [5, 30]: 16 µg/mL; MIC alone [5, 31]: 16 µg/mL; MIC combination [5, 31]: 16 µg/mL; MIC alone [5, 32]: 64 µg/mL; MIC combination [5, 32]: 0.5 µg/mL; MIC alone [5, 33]: 128 µg/mL; MIC combination [5, 33]: 128 µg/mL; MIC alone [5, 34]: 32 µg/mL; MIC combination [5, 34]: 16 µg/mL; MIC alone [5, 35]: 128 µg/mL; MIC combination [5, 35]: 64 µg/mL; MIC alone [5, 36]: 4 µg/mL; MIC combination [5, 36]: 4 µg/mL; MIC alone [5, 37]: 8 µg/mL; MIC combination [5, 37]: 8 µg/mL; MIC alone [5, 38]: 32 µg/mL; MIC combination [5, 38]: 32 µg/mL; MIC alone [5, 39]: 16 µg/mL; MIC combination [5, 39]: 16 µg/mL; MIC alone [5, 40]: 16 µg/mL; MIC combination [5, 40]: 16 µg/mL; MIC alone [5, 41]: 16 µg/mL; MIC combination [5, 41]: 16 µg/mL; MIC alone [5, 42]: 64 µg/mL; MIC combination [5, 42]: 128 µg/mL; MIC alone [5, 43]: 128 µg/mL; MIC combination [5, 43]: 128 µg/mL; MIC alone [5, 44]: 32 µg/mL; MIC combination [5, 44]: 32 µg/mL; MIC alone [5, 45]: 128 µg/mL; MIC combination [5, 45]: 64 µg/mL
